Experiments:
[1] = molecular target: T1, human PKCθ full length enzyme (Homo sapiens, UniProt Q04759); experiment: PKCθ IMAP Assay; assay type: biochemical; details: PKCθ 1 nM; ATP 6 μM; peptide 100 nM; DMSO 5%; 25 minutes at room temperature; FP readout; read-out: PKC-Theta Mean IC50
T1 construct: human PKCθ full length enzyme (Panvera Cat# P2996); purchased Panvera P2996
Method: The materials used include the following: human PKCθ full length enzyme (Panvera Cat# P2996); substrate peptide: 5FAM-RFARKGSLRQKNV-OH (Molecular Devices, RP7032); ATP (Sigma Cat # A2383); DTT (Pierce, 20291); 5× kinase reaction buffer (Molecular Devices, R7209); 5× binding buffer A (Molecular Devices, R7282), 5× binding buffer B (Molecular Devices, R7209); IMAP Beads (Molecular Devices, R7284); and 384-well plates (Corning Costar, 3710).
The reaction buffer was prepared by diluting the 5× stock reaction buffer and adding DTT to obtain a concentration of 3.0 mM. The binding buffer was prepared by diluting the 5× binding buffer A. A master mix solution was prepared using a 90% dilution of the reaction buffer containing 2×ATP (12 uM) and 2× peptide (200 nm). Compounds were diluted in DMSO to 20× of the maximum concentration for the IC50 measurement. 27 μl of the master mix solution for each IC50 curve was added to the first column in a 384-well plate and 3 μl of 20× compound in DMSO was added to each well.
The final concentration of compound was 2× and 10% DMSO. DMSO was added to the rest of the master mix to increase the concentration to 10%. 10 μl of the master mix containing 10% DMSO was added to the rest of the wells on the plate except the 2nd column. 20 μl was transferred from the first column to the 2nd column. The compounds were serially diluted in 2:1 ratio starting from the 2nd column. A 2×(2 nM) PKCθ solution was made in the reaction buffer. 10 μl of the PKCθ solution was added to every well to achieve these final concentrations: PKCθ-1 nM; ATP-6 μM; peptide-100 nM; DMSO-5%. Samples were incubated for 25 minutes at room temperature. The binding reagent was prepared by diluting the beads in 1× binding buffer to 800:1. 50 μl of the binding reagent was added to every well and incubated for 20 minutes. FP was measured using Envision2100 (PerkinElmer Life Sciences). Wells with no ATP and wells with no enzyme were used as controls.

[2] = Metabolic stability in rat liver microsomes; assay type: in vitro ADME; details: 30 minutes incubation, remaining compound by HPLC, 6-Me compounds of the invention, read-out: Rat Microsome Stability of 6-Me cyanopyridine Compounds (approximate half life)
Method: In order to probe the metabolic stability of the compounds of the invention, a series of compounds were selected for stability testing in rat liver microsomes. A DMSO solution of each compound was incubated for 30 minutes in the presence of rat liver homogenate. The percentage of remaining compound was assessed by HPLC. An approximate half life was calculated from the percentage of remaining compound. Table II, below, illustrates a comparison of the in vitro microsomal half life of the selected compounds verses a series of related compounds lacking the C-6 alkyl group. […] It is generally accepted in the industry that improved in vitro metabolic stability frequently translates into improved in vivo metabolic stability. Improved metabolic stability may translate to increased in vivo exposure levels.

T1 sequence (Q04759 whole entry): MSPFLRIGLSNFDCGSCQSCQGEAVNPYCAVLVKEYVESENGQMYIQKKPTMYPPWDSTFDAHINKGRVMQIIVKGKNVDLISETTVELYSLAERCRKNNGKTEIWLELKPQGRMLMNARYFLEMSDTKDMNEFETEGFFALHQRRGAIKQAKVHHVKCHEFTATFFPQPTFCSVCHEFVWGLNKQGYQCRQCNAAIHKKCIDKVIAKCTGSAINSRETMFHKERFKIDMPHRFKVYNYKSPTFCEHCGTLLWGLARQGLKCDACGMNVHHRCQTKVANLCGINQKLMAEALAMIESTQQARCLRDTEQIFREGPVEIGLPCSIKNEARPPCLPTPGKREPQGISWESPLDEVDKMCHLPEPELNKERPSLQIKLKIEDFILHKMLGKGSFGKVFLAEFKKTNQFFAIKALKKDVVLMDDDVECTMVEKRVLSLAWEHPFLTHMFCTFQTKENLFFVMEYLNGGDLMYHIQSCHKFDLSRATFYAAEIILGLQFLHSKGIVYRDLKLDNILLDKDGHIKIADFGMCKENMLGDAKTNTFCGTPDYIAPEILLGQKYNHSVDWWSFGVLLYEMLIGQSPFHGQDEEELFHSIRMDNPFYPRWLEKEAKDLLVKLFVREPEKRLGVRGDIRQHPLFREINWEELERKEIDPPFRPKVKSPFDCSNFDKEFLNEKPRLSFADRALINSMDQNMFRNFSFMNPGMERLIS

IC50 [1] [nM] | melting point [°C] | half-life [2] [min] | Compound
151 | 182 to 183 | – | COc1ccc(-c2c(C)ncc(C#N)c2Nc2cccc3[nH]ccc23)cc1OC [Example 8, 5-(3,4-dimethoxyphenyl)-4-(1H-indol-4-ylamino)-6-methylnicotinonitrile]
67 | 202 to 203 | – | COc1ccc(-c2c(C)ncc(C#N)c2Nc2ccc3[nH]ccc3c2C)cc1OC [Example 9, 5-(3,4-dimethoxyphenyl)-6-methyl-4-[(4-methyl-1H-indol-5-yl)amino]nicotinonitrile]
113 | 192 to 193 | – | Cc1ncc(C#N)c(Nc2cccc3[nH]ccc23)c1-c1cc2ccccc2o1 [Example 10, 5-(1-benzofuran-2-yl)-4-(1H-indol-4-ylamino)-6-methylnicotinonitrile]
13 | 154 to 155 | – | Cc1ncc(C#N)c(Nc2ccc3[nH]ccc3c2C)c1-c1cc2ccccc2o1 [Example 11, 5-(1-benzofuran-2-yl)-6-methyl-4-[(4-methyl-1H-indol-5-yl)amino]nicotinonitrile]
30 | 200 to 201 | – | Cc1ncc(C#N)c(Nc2ccc3[nH]ccc3c2C)c1-c1ccc(OCCCl)cc1 [Example 12, 5-[4-(2-chloroethoxy)phenyl]-6-methyl-4-[(4-methyl-1H-indol-5-yl)amino]nicotinonitrile]
150 | 185 to 186 | – | Cc1ncc(C#N)c(Nc2cccc3[nH]ccc23)c1-c1ccc(OCCCl)cc1 [Example 13, 5-[4-(2-chloroethoxy)phenyl]-4-(1H-indol-4-ylamino)-6-methylnicotinonitrile]
31 | 183 to 184 | > 30 | Cc1ncc(C#N)c(Nc2ccc3[nH]ccc3c2C)c1-c1ccc(OCCN2CCN(C)CC2)cc1 [Example 14, 6-methyl-4-[(4-methyl-1H-indol-5-yl)amino]-5-{4-[2-(4-methylpiperazin-1-yl)ethoxy]phenyl}nicotinonitrile]
12 | 168 to 169 | – | Cc1ncc(C#N)c(Nc2ccc3[nH]ccc3c2C)c1-c1cc2cc(C=O)ccc2o1 [Example 15, 5-(5-formyl-1-benzofuran-2-yl)-6-methyl-4-[(4-methyl-1H-indol-5-yl)amino]nicotinonitrile]
2.7 | 218 to 220 | – | Cc1ncc(C#N)c(Nc2ccc3[nH]ccc3c2C)c1-c1cc2cc(CN3CCN(C)CC3)ccc2o1 [Example 16, 6-methyl-4-[(4-methyl-1H-indol-5-yl)amino]-5-{5-[(4-methylpiperazin-1-yl)methyl]-1-benzofuran-2-yl}nicotinonitrile]
44 | – | > 30 | CCN1CCN(CCOc2ccc(-c3c(C)ncc(C#N)c3Nc3ccc4[nH]ccc4c3C)cc2)CC1 [Example 33, 5-{4-[2-(4-ethylpiperazin-1-yl)ethoxy]phenyl}-6-methyl-4-[(4-methyl-1H-indol-5-yl)amino]nicotinonitrile]
44 | – | > 30 | Cc1ncc(C#N)c(Nc2ccc3[nH]ccc3c2C)c1-c1ccc(OCCN2CCN(CCO)CC2)cc1 [Example 35, 5-(4-{2-[4-(2-hydroxyethyl)piperazin-1-yl]ethoxy}phenyl)-6-methyl-4-[(4-methyl-1H-indol-5-yl)amino]nicotinonitrile]
33 | – | > 30 | Cc1ncc(C#N)c(Nc2ccc3[nH]ccc3c2C)c1-c1ccc(OCCN2CCN(CCN(C)C)CC2)cc1 [Example 36, 5-[4-(2-{4-[2-(dimethylamino)ethyl]piperazin-1-yl}ethoxy)phenyl]-6-methyl-4-[(4-methyl-1H-indol-5-yl)amino]nicotinonitrile]
14 | – | > 30 | Cc1ncc(C#N)c(Nc2ccc3[nH]ccc3c2C)c1-c1ccc(OCCNCCCn2ccnc2)cc1 [Example 38, 5-[4-(2-{[3-(1H-imidazol-1-yl)propyl]amino}ethoxy)phenyl]-6-methyl-4-[(4-methyl-1H-indol-5-yl)amino]nicotinonitrile]
73 | – | 14 | Cc1ncc(C#N)c(Nc2ccc3[nH]ccc3c2C)c1-c1ccc(OCCNCc2ccccc2)cc1 [Example 39, 5-{4-[2-(benzylamino)ethoxy]phenyl}-6-methyl-4-[(4-methyl-1H-indol-5-yl)amino]nicotinonitrile]
29 | – | 13 | Cc1ncc(C#N)c(Nc2ccc3[nH]ccc3c2C)c1-c1ccc(OCCNCc2ccccn2)cc1 [Example 40, 6-methyl-4-[(4-methyl-1H-indol-5-yl)amino]-5-(4-{2-[(pyridin-2-ylmethyl)amino]ethoxy}phenyl)nicotinonitrile]

From patent US20110028455A1, “Indole-substituted 3-cyanopyridines As Kinase Inhibitors” (Wyeth LLC, priority 2007, published 2011)
